Source: publication PMC6099682, “(-)-Shikimic Acid as a Chiral Building Block for the Synthesis of New Cytotoxic 6-Aza-Analogues of Angucyclinones” (Molecules : A Journal of Synthetic Chemistry and Natural …, 2018)
Where two headings read alike, the source gives them in different places.

Assays:
PC-3 (prostate cancer) = test: Sulforhodamine B cytotoxicity assay, PC-3; type: cell-based; conditions: for IC50: 72 h continuous exposure, SRB assay, mean ± SD; for Selectivity index (SI), ratio of IC50 in CoN in cancer cells, PC-3: CCD841-CoN IC50 / PC-3 IC50
Protocol: (§1) To analyse the scope of the shikimic-fragment incorporated in the angucycline scaffold on the cytotoxic activity of these compounds, we included five previously obtained compounds (Figure 2, [32]). Therefore, the cytotoxicity of the new nine synthesised compounds, and of the five aforementioned compounds, was evaluated in vitro against different cancer cell lines: PC-3 (prostate cancer), HT-29 (colon cancer), MCF-7 (breast cancer), and one non-tumoral cell line, human colon epithelial cells (CCD841 CoN). A conventional colorimetric assay was set up to estimate the IC50 values, which represent the concentration of a drug that is required for 50% inhibition in vitro after 72 h of continuous exposure to the test compounds. Several serial dilutions (from 1.25 to 100 µM) for each sample were evaluated in triplicate.
(§2) The experimental cell lines were obtained from the American Type Culture Collection. HT-29 (colon cancer cell line), PC-3 (prostate cancer), MCF-7 (breast cancer), and CCD841 CoN (colon epithelial) were grown in DMEM-F12 containing 10% FCS, 100 U/mL penicillin, 100 µg/mL streptomycin, and 1 mM glutamine.
(§3) The in vitro cytotoxic activities of all the compounds were evaluated on cell lines previously mentioned by the sulforhodamine B assay, according to [42]. Briefly, cells were seeded at a plating density of 5 × 10^3 cells/well into 96 well plates. Cells were incubated at 37 °C for 24 h to allow cell attachment. The test compounds at indicated final concentrations were added to the culture medium and the cell cultures were continued for 72 h under the same conditions. Stock solutions of compounds were prepared in DMSO. Control cultures received 0.1% DMSO alone. At the end of the treatment, cells were fixed with trichloroacetic acid (50% w/v) at 4 °C and, subsequently, washed with water. Cells were stained with 0.1% sulforhodamine B in 1% acetic acid for 30 min. Posteriorly, the cells were washed acetic acid (1%) to remove unbound sulforhodamine B. Protein-bound stain was solubilized with 10 mM unbuffered Tris base). The optical density was determined using a […] plate reader (540 nm). The obtained values are transformed to percentages of viable cells versus control treatment and the IC50 values calculated for each compound in the cell lines were studied using the SigmaPlot 12.0 software (Systat Software, San Jose, CA, USA). Values shown are the mean ± SD of the three independent experiments in triplicate.

HT-29 (colon cancer) = test: Sulforhodamine B cytotoxicity assay, HT-29; type: cell-based; conditions: for IC50: 72 h continuous exposure, SRB assay, mean ± SD; for Selectivity index (SI), ratio of IC50 in CoN in cancer cells, HT-29: CCD841-CoN IC50 / HT-29 IC50
Protocol: as §1, §2, §3

MCF-7 (breast cancer) = test: Sulforhodamine B cytotoxicity assay, MCF-7; type: cell-based; conditions: for Selectivity index (SI), ratio of IC50 in CoN in cancer cells, MCF-7: CCD841-CoN IC50 / MCF-7 IC50; for IC50: Homo sapiens, MCF7, 72 h continuous exposure, SRB assay
Protocol: as §1, §2, §3

[1] = system: human colon epithelial cells (CCD841 CoN); test: Sulforhodamine B cytotoxicity assay, non-tumoral CCD841 CoN; type: cell-based; conditions: CCD-841CoN, 72 h continuous exposure, SRB assay, mean ± SD
Protocol: as §1, §2, §3

SF-268 = system: SF-268; design: method as in PMID 23136829; conditions: read-out: IC50, in vitro cytotoxicity toward SF-268; cited from earlier work
MCF-7 = system: MCF-7; design: method as in PMID 23136829; conditions: read-out: IC50, in vitro cytotoxicity toward MCF-7; cited from earlier work
lung carcinoma, MBA9812 = system: lung carcinoma, MBA9812; design: method as in doi:10.1021/jo00007a009; conditions: cited from earlier work
Staphylococcus aureus = system: Staphylococcus aureus; design: method as in PMID 26968676; conditions: cited from earlier work
[2] = mean ± SD, read-out: IC50 Values MCF-7

SMILES | IC50 (PC-3 (prostate cancer); 72 h) [µM] | IC50 (PC-3 (prostate cancer)) [µM] | Selectivity index (SI), ratio of IC50 in CoN in cancer cells, PC-3 (PC-3 (prostate cancer)) | IC50 (HT-29 (colon cancer)) [µM] | Selectivity index (SI), ratio of IC50 in CoN in cancer cells, HT-29 (HT-29 (colon cancer)) | IC50 (HT-29 (colon cancer); Homo sapiens, HT-29, 72 h) [µM] | Selectivity index (SI), ratio of IC50 in CoN in cancer cells, MCF-7 (MCF-7 (breast cancer)) | IC50 (MCF-7 (breast cancer); [2]) [µM] | IC50 [1] [µM] | IC50 (MCF-7 (breast cancer); read-out: IC50 value MCF-7) [µM] | melting point [°C] | IC50 (SF-268) [µM] | IC50 (MCF-7) [µM] | activity against the lung carcinoma, MBA9812, in mice (lung carcinoma, MBA9812) | antibacterial activities against Staphylococcus aureus (Staphylococcus aureus)
CN(C)N1C=C2C[C@@H](O[Si](C)(C)C(C)(C)C)[C@@H]3OC(C)(C)O[C@@H]3[C@H]2C2=C1C(=O)c1c(O)cccc1C2=O [Compound 7a] | < 1 | 0.7 ± 0.1 | 3.3 | 0.2 ± 0.05 | 11.5 | < 0.4 | 0.1 | 16 ± 1 | 2.3 ± 0.3 |  |  |  |  |  | 
CO[C@H]1C=Cc2cnc3c(c2[C@@H]1OC)C(=O)c1cccnc1C3=O [Compound 19a, (1S,2S)-1,2-Dimethoxy-1,2-dihydropyrido[3,2-b]phenanthridine-7,12-dione] |  |  | 0.5 |  |  |  | 4.0 | 0.01 ± 0.005 | 0.04 ± 0.01 | ~0.01 | 78.8 |  |  |  | 
Cc1cc(O)c2c3c(ncc2c1)C(=O)c1c(O)cccc1C3=O [Compound 4b, phenanthroviridone] |  |  |  |  |  |  |  |  |  |  |  | 0.09 | 0.17 | active | antibacterial activities
CO[C@@H]1[C@H](OC)c2c(cnc3c2C(=O)c2ccccc2C3=O)C[C@H]1OC [Compound 17, (1R,2S,3R)-1,2,3-Trimethoxy-1,2,3,4-tetrahydrobenzo[b]phenanthridine-7,12-dione] | 3.9 ± 0.6 |  | 3.0 | 3.3 ± 0.9 | 3.6 | ~3 | 1.0 | 11.9 ± 1.5 | 11.8 ± 1.3 |  | 184.8 |  |  |  | 
CN[C@H]1C[C@@H](Oc2cc(C)cc3cnc4c(c23)C(=O)c2cccc(O)c2C4=O)O[C@H](C)[C@H]1O [Compound 4a, phenanthroviridin] |  |  |  |  |  |  |  |  |  |  |  |  |  | active | 
CO[C@@H]1[C@@H]2C(=CNC3=C2C(=O)c2cccc(O)c2C3=O)C[C@@H](OC)[C@@H]1OC [Compound 16b, (1R,2S,3R,12bR)-8-Hydroxy-1,2,3-trimethoxy-1,2,3,4,6,12b-hexahydrobenzo[b]phenanthridine-7,12-dione] | 6.6 ± 1.1 |  | 2.3 |  | 2.9 | 5.3 ± 0.8 | 1.3 | 11.5 ± 3.1 | 15.5 ± 3.1 |  | 177.3 |  |  |  | 
CC1(C)O[C@@H]2[C@H](O1)c1c(cnc3c1C(=O)c1ccccc1C3=O)C[C@H]2O[Si](C)(C)C(C)(C)C [Compound 9a] | 7.6 ± 1.2 |  | 0.4 |  | 0.8 | 3.7 ± 0.8 | 0.2 | 17.8 ± 3 | 2.8 ± 0.4 |  |  |  |  |  | 
CO[C@@H]1[C@@H]2C(=CNC3=C2C(=O)c2c(O)ccc(O)c2C3=O)C[C@@H](OC)[C@@H]1OC [Compound 16c, (1R,2S,3R,12bR)-8,11-Dihydroxy-1,2,3-trimethoxy-1,2,3,4,6,12b-hexahydrobenzo[b]phenanthridine-7,12-dione] | 6.4 ± 0.8 |  | 1.4 |  | 2.2 | 4 ± 0.3 | 0.7 | 13.5 ± 0.9 | 8.8 ± 1.3 |  | 139 |  |  |  | 
CC1(C)O[C@@H]2[C@@H]3C(=CNC4=C3C(=O)c3ccccc3C4=O)C[C@@H](O[Si](C)(C)C(C)(C)C)[C@@H]2O1 [Compound 8] | 5.7 ± 1.3 |  | 2.4 |  | 1.8 | 7.8 ± 0.9 | 3.3 | 4.2 ± 4.2 | 13.8 ± 1 |  |  |  |  |  | 
COc1cccc2cnc3c(c12)C(=O)c1ccccc1C3=O [Compound 20, 1-Methoxybenzo[b]phenanthridine-7,12-dione] | 7.8 ± 1 |  | 3.0 | 3.7 ± 1.2 | 6.4 | ~3 | 1.7 | 14 ± 1.7 | 23.6 ± 3.4 |  |  |  |  |  | 
CO[C@H]1C=Cc2cnc3c(c2[C@@H]1OC)C(=O)c1ccccc1C3=O [Compound 19c, (1S,2S)-1,2-Dimethoxy-1,2-dihydrobenzo[b]phenanthridine-7,12-dione] | 4 ± 0.4 |  | 4.4 |  | 0.8 | 21 ± 3.6 | 1.4 | 12.8 ± 1.4 | 17.4 ± 2 |  | 117.5 |  |  |  | 
CO[C@H]1C=Cc2cnc3c(c2[C@@H]1OC)C(=O)c1ccc(C)nc1C3=O [Compound 19b, (1S,2S)-1,2-Dimethoxy-9-methyl-1,2-dihydropyrido[3,2-b]phenanthridine-7,12-dione] |  |  | 0.7 | 0.39 ± 0.04 |  | < 0.4 | 1.6 | 0.19 ± 0.04 | 0.3 ± 0.02 |  | 161.2 |  |  |  | 
CO[C@@H]1[C@@H]2C(=CNC3=C2C(=O)c2ccccc2C3=O)C[C@@H](OC)[C@@H]1OC [Compound 16a, (1R,2S,3R,12bR)-1,2,3-Trimethoxy-1,2,3,4,6,12b-hexahydrobenzo[b]phenanthridine-7,12-dione] | 23.6 ± 3.7 |  | 4.9 |  | 2.7 | 42.9 ± 8.4 | 1.0 | 118 ± 10.8 | 116 ± 17.8 |  | 161.5 |  |  |  | 
CC(=O)Oc1cccc2c1C(=O)C1=C(C2=O)[C@H]2C(=CN1N(C)C)C[C@@H](O[Si](C)(C)C(C)(C)C)[C@@H]1OC(C)(C)O[C@H]21 [Compound 7b] | 2.4 ± 0.9 |  | 0.3 |  | 0.4 | 2.1 ± 1.2 | 0.1 | 12.1 ± 4 | 0.8 ± 0.1 |  |  |  |  |  | 
CC1(C)O[C@@H]2[C@H](O1)c1c(cnc3c1C(=O)c1c(O)ccc(O)c1C3=O)C[C@H]2O[Si](C)(C)C(C)(C)C [Compound 9b] | 13.1 ± 2 |  | 1.2 |  | 1.1 | 15 ± 4.2 | 0.6 | 28.3 ± 4 | 15.6 ± 2.1 |  |  |  |  |  | 
CO[C@@H]1[C@@H]2C(=CN(N(C)C)C3=C2C(=O)c2ccccc2C3=O)C[C@@H](OC)[C@@H]1OC [Compound 15, (1R,2S,3R,12bR)-6-(Dimethylamino)-1,2,3-trimethoxy-1,2,3,4,6,12b-hexahydrobenzo[b]phenanthridine-7,12-dione] | 34.8 ± 0.3 |  | 2.3 |  | 2.8 | 29.2 ± 6.8 | 1.0 | 78.1 ± 6.9 | 81.6 ± 15.8 |  | 128.5 |  |  |  | 
